Test [1] has as its target human FPR2 (Homo sapiens (Human), UniProt P25090). In words: FPR2 cyclic adenosine monophosphate (cAMP) assay. As to conditions: CHO cells overexpressing human FPR2; forskolin 5 µM; inhibition of cAMP production; read-out: hFPR2 cAMP2 EC50. The class given is cell-based. The method, boiled down: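 Inhibition of forskolin-driven (5 µM) cAMP, with 200 µM IBMX, measured in human FPR2-expressing CHO cells, 2,000 per well, 30 min at room temperature; compounds tested 0.020 nM to 100 µM in 1% DMSO. HTRF 665/590 ratio converted to cAMP via calibration curve, then 4-parameter fit.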
Background: Cyclic AMP is a second messenger, typically raised through Gs and lowered through Gi signalling.

Test [2] addresses human FPR1 (Homo sapiens (Human), UniProt P21462). In words: FPR1 cyclic adenosine monophosphate (cAMP) assay. The class given is cell-based. The note with it: CHO cells overexpressing human FPR1; forskolin 10 µM; inhibition of cAMP production; read-out: hFPR1 cAMP EC50. The method, boiled down:
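Human FPR1-expressing CHO cells were used at 4,000 per well, with compound at 0.020 nM–100 µM in 1% DMSO. Potency came from a 4-parameter logistic fit.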

Some results are limits rather than exact numbers.

human FPR1, sequence (P21462 whole entry): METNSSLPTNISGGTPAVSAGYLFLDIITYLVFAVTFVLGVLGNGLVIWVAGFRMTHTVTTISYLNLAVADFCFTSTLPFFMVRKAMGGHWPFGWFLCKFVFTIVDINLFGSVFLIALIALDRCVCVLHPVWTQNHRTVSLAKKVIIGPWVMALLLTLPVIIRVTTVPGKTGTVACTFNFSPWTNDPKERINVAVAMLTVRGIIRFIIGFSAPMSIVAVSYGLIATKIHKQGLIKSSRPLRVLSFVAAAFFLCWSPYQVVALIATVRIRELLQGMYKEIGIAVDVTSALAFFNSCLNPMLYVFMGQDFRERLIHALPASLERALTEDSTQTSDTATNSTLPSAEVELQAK
human FPR2, sequence (P25090 whole entry): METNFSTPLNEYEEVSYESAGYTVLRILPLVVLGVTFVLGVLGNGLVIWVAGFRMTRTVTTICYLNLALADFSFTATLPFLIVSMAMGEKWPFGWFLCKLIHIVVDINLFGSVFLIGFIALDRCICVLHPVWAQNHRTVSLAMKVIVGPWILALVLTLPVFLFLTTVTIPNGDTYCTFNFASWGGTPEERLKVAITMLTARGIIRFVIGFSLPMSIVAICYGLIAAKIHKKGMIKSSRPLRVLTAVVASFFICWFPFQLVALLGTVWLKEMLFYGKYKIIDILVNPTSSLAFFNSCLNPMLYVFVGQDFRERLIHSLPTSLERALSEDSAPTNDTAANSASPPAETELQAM

Broadly, the EC50 is the concentration needed to bring the measured effect to its halfway point. Take `CCn1ccc(C)c(N2C[C@@H](c3ccc(OC)cc3)[C@H](NC(=O)c3ccc(OC(F)(F)F)cc3)C2=O)c1=O` [Example 170]: the results for the EC50 in test [1] and in test [2] were 4.4 nM and 0.9 nM, respectively.
The corresponding values for `COCC(C(=O)N(C)C)n1cccc(N2C[C@@H](c3c(F)cc(OC)cc3F)[C@H](NC(=O)c3ccc(OC(F)F)cc3)C2=O)c1=O` (some centres unmarked) [Example 172] are 4.5 nM and 39 nM.
The corresponding values for `COc1cc(F)c([C@@H]2CN(c3cccn(CC(C)O)c3=O)C(=O)[C@H]2NC(=O)c2ccc(OC(F)(F)F)cc2)c(F)c1` (some centres unmarked) [Example 173] are 4.5 nM and 12 nM.
In the same order, the values of `COc1cc(F)c([C@@H]2CN(c3cccn(CCO)c3=O)C(=O)[C@H]2NC(=O)c2ccc(OC(F)(F)F)cc2)c(F)c1` [Example 174] are 4.5 nM and 67 nM.
On to `COCC(CO)n1cccc(N2C(=O)[C@@H](NC(=O)c3ccc(OC(F)(F)F)cc3)[C@H](c3c(F)cc(OC)cc3F)[C@@H]2C)c1=O` (some centres unmarked) [Example 175], for which the half-maximal effective concentration (EC50) in test [1] is 4.6 nM; in test [2], 9.3 nM.
As for `COc1cc(F)c([C@@H]2CN(c3c(C)ccn(CC(C)O)c3=O)C(=O)[C@H]2NC(=O)c2ccc(OC(F)F)cc2)c(F)c1` (some centres unmarked) [Example 176], the EC50 in test [1] was determined as 4.6 nM; in test [2], 6.5 nM.
In the same order, the values of `COc1cc(F)c([C@@H]2CN(c3nc(N(C)C(C)=O)ccc3F)C(=O)[C@H]2NC(=O)c2ccc(OC(F)F)cc2)c(F)c1` [Example 177] are 4.6 nM and 15 nM.
In the same order, the values of `COCCn1ccc(C)c(N2C[C@@H](c3ccc(OC)cc3)[C@H](NC(=O)c3ccc(OC(F)(F)F)cc3)C2=O)c1=O` [Example 178] are 4.7 nM and 0.1 nM.
For the compound `COc1cc(F)c([C@@H]2CN(c3cccn(CC(C)(CO)CO)c3=O)C(=O)[C@H]2NC(=O)c2ccc(OC(F)F)cc2)c(F)c1` [Example 179], the EC50 was 4.7 nM in test [1] and 92 nM in test [2].
The corresponding values for `COc1cc(N2C[C@@H](C)N(C)[C@@H](C)C2)nc(N2C[C@@H](c3c(F)cc(OC)cc3F)[C@H](NC(=O)c3ccc(Cl)cc3)C2=O)c1` [Example 180] are 4.7 nM and over 10000 nM.
The corresponding values for `COc1cc(F)c([C@@H]2CN(c3nccc(N4C[C@@H](C)N(C)[C@@H](C)C4)c3C(F)(F)F)C(=O)[C@H]2NC(=O)c2ccc(Cl)cc2)c(F)c1` [Example 181] are 4.8 nM and 990 nM.
For `COc1ccc([C@@H]2CN(c3c(C)ccn(CC(F)F)c3=O)C(=O)[C@H]2NC(=O)c2ccc(OC(F)(F)F)cc2)c(F)c1` [Example 182], the EC50 in test [1] amounted to 4.8 nM; in test [2] it was 1.8 nM.
In the same order, the values of `CCn1ccc(C)c(N2C[C@@H](c3ccc(OC)cc3F)[C@H](NC(=O)c3ccc(OC(F)(F)F)cc3)C2=O)c1=O` [Example 183] are 4.8 nM and 0.6 nM.
The corresponding values for `COc1cc(F)c([C@@H]2CN(c3cccc(OC(F)F)c3)C(=O)[C@H]2NC(=O)c2ccc(OC(F)(F)F)cc2)c(F)c1` [Example 184] are 4.8 nM and 9.8 nM.
The corresponding values for `COCCn1ccc(C)c(N2C[C@@H](c3c(F)cc(OC)cc3F)[C@H](NC(=O)c3ccc(OC(F)(F)F)cc3)C2=O)c1=O` [Example 185] are 4.8 nM and 0.7 nM.
On to `COc1cc(F)c([C@@H]2CN(c3cccn(CC(OC)C(F)(F)F)c3=O)C(=O)[C@H]2NC(=O)c2ccc(OC(F)F)cc2)c(F)c1` (some centres unmarked) [Example 186], for which the EC50 in test [1] was determined as 4.9 nM; in test [2], 3 nM.
The corresponding values for `COc1cc(F)c([C@@H]2CN(c3cccn(CC(C)(CO)CO)c3=O)C(=O)[C@H]2NC(=O)c2ccc(OC(F)(F)F)cc2)c(F)c1` [Example 187] are 4.9 nM and 38 nM.
The corresponding values for `COc1cc(F)c([C@@H]2CN(c3cccn(C(F)F)c3=O)C(=O)[C@H]2NC(=O)c2ccc(OC(F)(F)F)cc2)c(F)c1` [Example 188] are 4.9 nM and 38 nM.
In the case of `COc1cc(F)c([C@@H]2CN(c3cc(Cl)cn(C)c3=O)C(=O)[C@H]2NC(=O)c2ccc(Cl)cc2)c(F)c1` [Example 189], the EC50 was 5 nM in test [1] and 3400 nM in test [2].
The corresponding values for `COc1cc(F)c([C@@H]2CN(c3cccn(CC(F)(F)F)c3=O)C(=O)[C@H]2NC(=O)c2ccc(OC(F)F)cc2)c(F)c1` [Example 190] are 5 nM and 130 nM.
In the same order, the values of `COc1cc(F)c([C@@H]2CN(c3cccn(CC(F)(F)F)c3=O)C(=O)[C@H]2NC(=O)c2ccc(OC(F)(F)F)cc2)c(F)c1` [Example 191] are 5 nM and 90 nM.
In the same order, the values of `COc1ccc([C@@H]2CN(c3c(C)ccn(CC4CC4)c3=O)C(=O)[C@H]2NC(=O)c2ccc(OC(F)F)cc2)c(F)c1` [Example 192] are 5.1 nM and 0.8 nM.
On to `COc1cc(F)c([C@@H]2CN(c3cccn(C)c3=O)C(=O)[C@H]2NC(=O)c2ccc(Cl)cc2)c(F)c1` [Example 193], for which the concentration for a half-maximal effect (EC50) was determined as 5.1 nM in test [1] and 570 nM in test [2].
The corresponding values for `COCC(CN)n1cccc(N2C[C@@H](c3c(F)cc(OC)cc3F)[C@H](NC(=O)c3ccc(OC(F)(F)F)cc3)C2=O)c1=O` (some centres unmarked) [Example 194] are 5.1 nM and 150 nM.
As to `COc1cc(F)c([C@@H]2CN(c3c(C)ccn(CC4CC4)c3=O)C(=O)[C@H]2NC(=O)c2ccc(OC(F)F)cc2)c(F)c1` [Example 195], the figures for the EC50 in test [1] and in test [2] were 5.2 nM and 1.3 nM, respectively.
For `COc1cc(F)c([C@@H]2CN(c3c(Cl)ccn(C)c3=O)C(=O)[C@H]2NC(=O)c2ccc(Cl)cc2)c(F)c1` [Example 196], the EC50 is 5.2 nM in test [1] and 160 nM in test [2].
In the same order, the values of `CCn1ccc(C)c(N2C[C@@H](c3c(F)cc(OC)cc3F)[C@H](NC(=O)c3ccc(OC(F)F)cc3)C2=O)c1=O` [Example 197] are 5.2 nM and 1.7 nM.
The corresponding values for `COc1cc(F)c([C@@H]2CN(c3nc(N4CCC(O)C4=O)ccc3F)C(=O)[C@H]2NC(=O)c2ccc(OC(F)F)cc2)c(F)c1` (some centres unmarked) [Example 199] are 5.2 nM and 130 nM.
The corresponding values for `COCCn1cccc(N2C(=O)[C@@H](NC(=O)c3ccc(OC(F)(F)F)cc3)[C@H](c3c(F)cc(OC)cc3F)[C@H]2C)c1=O` [Example 200] are 5.2 nM and 290 nM.
As to `COc1cc(F)c([C@@H]2CN(c3cccn(C4CCOC4)c3=O)C(=O)[C@H]2NC(=O)c2ccc(OC(F)F)cc2)c(F)c1` (some centres unmarked) [Example 201], the EC50 in test [1] was 5.3 nM; in test [2], 18 nM.
In the same order, the values of `COc1cc(F)c([C@@H]2CN(c3cccnc3OCCN3CC4(COC4)C3)C(=O)[C@H]2NC(=O)c2ccc(OC(F)F)cc2)c(F)c1` [Example 202] are 5.3 nM and 62 nM.
As to `COc1cc(F)c([C@@H]2CN(c3nc(C(F)(F)F)ccc3C)C(=O)[C@H]2NC(=O)c2ccc(OC(F)F)cc2)c(F)c1` [Example 204], the figures for the EC50 in test [1] and in test [2] were 5.3 nM and 520 nM, respectively.
For `CCn1cc(F)cc(N2C[C@@H](c3c(F)cc(OC)cc3F)[C@H](NC(=O)c3ccc(OC(F)F)cc3)C2=O)c1=O` [Example 205], the EC50 in test [1] worked out at 5.4 nM; in test [2], 220 nM.
The corresponding values for `COc1cc(F)c([C@@H]2CN(c3nc(NC(C)=O)ccc3F)C(=O)[C@H]2NC(=O)c2ccc(OC(F)(F)F)cc2)c(F)c1` [Example 206] are 5.4 nM and 24 nM.
In the same order, the values of `COCCn1ccc(C)c(N2C[C@@H](c3ccc(OC)cc3F)[C@H](NC(=O)c3ccc(OC(F)F)cc3)C2=O)c1=O` [Example 208] are 5.4 nM and 1.4 nM.
For `COc1cc(F)c([C@@H]2CN(c3nc(N4CC5(COC5)C4)ccc3F)C(=O)[C@H]2NC(=O)c2ccc(OC(F)F)cc2)c(F)c1` [Example 209], the EC50 in test [1] came to 5.5 nM; in test [2], 130 nM.
In the same order, the values of `COc1cc(F)c([C@@H]2CN(c3cccn(CCN4CC5(COC5)C4)c3=O)C(=O)[C@H]2NC(=O)c2ccc(OC(F)(F)F)cc2)c(F)c1` [Example 210] are 5.5 nM and 190 nM.
In the same order, the values of `COc1cc(F)c([C@@H]2CN(c3cccc(N4C[C@H]5C[C@@H]4CO5)n3)C(=O)[C@H]2NC(=O)c2ccc(OC(F)F)cc2)c(F)c1` [Example 211] are 5.5 nM and 25 nM.
As for `COc1cc(F)c([C@@H]2CN(c3nc(C(F)(F)F)ccc3N3CC[C@H](O)C3)C(=O)[C@H]2NC(=O)c2ccc(Cl)cc2)c(F)c1` [Example 212], the EC50 was 5.6 nM in test [1] and 100 nM in test [2].
In the same order, the values of `COc1cc(F)c([C@@H]2CN(c3cccc(N4C[C@@H](C)N(C)[C@@H](C)C4)n3)C(=O)[C@@H]2NC(=O)c2ccc(OC(F)F)cc2)c(F)c1` [Example 213] are 5.6 nM and 1800 nM.
The corresponding values for `COc1cc(N2C[C@@H](C)N(C)[C@@H](C)C2)nc(N2C[C@@H](c3c(F)cc(OC)cc3F)[C@H](NC(=O)c3ccc(OC(F)F)cc3)C2=O)c1` [Example 214] are 5.6 nM and 2400 nM.
For `CCn1cccc(N2C[C@@H](c3c(F)cc(OC)cc3F)[C@H](NC(=O)c3ccc(C)cc3)C2=O)c1=O` [Example 215], the results for the EC50 in test [1] and in test [2] were 5.6 nM and 41 nM, respectively.
The corresponding values for `COc1cc(F)c([C@@H]2CN(c3nc(N4CC(C)OCC4=O)ccc3F)C(=O)[C@H]2NC(=O)c2ccc(OC(F)F)cc2)c(F)c1` (some centres unmarked) [Example 216] are 5.7 nM and 270 nM.

The record behind these values is patent publication US20230348426A1, “OXOPYRROLIDINE FPR2 AGONISTS” (Bristol-Myers Squibb Company, priority 2020, published 2023).
